Reference: the SangsterLogP compilation
Residues, ends and D or L forms follow the SMILES beside them.

Test: method code SF, from Hansch, C. & Leo, A. (1987). Log P database [Dataset]. Pomona College Medicinal Chemistry Project.

Structure (SMILES)	logP	further results
O=C(CNC(=O)c1ccccc1)Oc1cccc(Cl)c1	3.21	
C=C1C[C@]23C[C@@]1(O)CC[C@H]2[C@@]12C=C[C@H](O)[C@@](C)(C(=O)O1)[C@H]2[C@@H]3C(=O)O	0.24	
Cn1c(=O)cnc2ccccc21	0.79	
c1ccc2c(c1)Cc1ccccc1C2	4.25	
CC(=O)C(Cc1ccccc1)C(C)=O	1.89	
CN(C)/N=N/c1ccccc1C(=O)NNC(=O)CC#N	1.44	
C=CCc1cccc2c(=O)c(C)c(-c3ccccc3)oc12	4.67	
CC(C)Cl	1.9	
CCC(C)C(=O)Nc1ccccc1 (stereo not given)	2.56	
C1COCCO1	-0.27	
OC[C@H]1O[C@@H](n2cnc3c(=S)nc[nH]c32)[C@H](O)[C@@H]1O		logD (pH 7.4): -0.6
CCc1ccccc1OC(C)=O	2.42	
NC(=O)c1cccc(F)c1	0.91	
CCCCC(=Cc1ccccc1)C(=O)NC(C)CC (stereo not given)	4.07	
OC(CF)CF	-0.36	
CCOc1cccc(NC(C)=O)c1		logD (pH 7.0): 1.82
CC(C)Oc1cn[nH]c1	1.13	
CCCOc1ccccc1	3.18	
Cc1ccc2[nH]c(C(O)C(O)c3nc4cc(C)ccc4[nH]3)nc2c1 (stereo not given)	1.27	
CNP(=O)(OC)Oc1ccc(C(C)(C)C)cc1 (stereo not given)	2.71	
CCCNc1c(C)n(C)c(=O)n(-c2ccccc2)c1=O		logD (pH 7.4): 1.2
NC(=O)c1cccc(C(N)=O)c1	-0.21	
CCCCCCC1CCC(=O)O1 (stereo not given)	2.72	
CNP(=O)(OC)Oc1ccc(C(C)(C)C)cc1Cl (stereo not given)	3.42	
O=C(NCC(O)CO)Nc1ccccc1 (stereo not given)	0.28	
COc1ccc(-n2c(C)c(N(C)C)c(=O)n(C)c2=O)cc1		logD (pH 7.4): 1.96
O=C1CC(=O)c2ccccc21	0.61	

Structure (SMILES)	logP	further results
CCOP(=O)(OCC)SCSCC	2.07	
COP(=O)(CC(C)=O)OC	0.86	
CN(C)C(=O)Oc1ccccc1	1.56	
CCC(C)NC(=O)C=C(Cl)c1ccc(Cl)cc1 (stereo not given)	3.61	
CCS(=O)(=O)c1ccc(S(N)(=O)=O)c2ccccc12	1.24	
CC(C)(C)C	3.11	
CCOC(=O)c1cccnc1	1.34	
Cc1cc(CSc2ccccc2Cl)c(O)c(C(=O)O)c1	4.69	
COC(=O)C=Cc1ccccc1	2.62	
O=c1cccccc1O		logD (pH 5.0): 0.75
CC1=C(C(=O)O)N2C(=O)[C@@H](NC(=O)Cc3cccs3)[C@H]2SC1		logD (pH 3.0): 0.61
N#C/C(=C\c1ccccc1)C(N)=O	1.5	
c1ccc(N2CCCCC2)cc1		logD (pH 13.0): 2.98
CCCCC1OC(=O)c2cc(N(CCO)CCO)ccc21 (stereo not given)	1.34	
CCOC(CCC#N)OCC	0.75	
FC(F)F	0.64	
CCOP(=O)(N1CC1(C)C)N1CC1(C)C (stereo not given)	1.02	
CN(C)C(=O)c1ccoc1	0.24	
O=S(Cc1ccccn1)c1nc2ccccc2[nH]1 (stereo not given)		logD (pH 5.0): 1.33
NS(=O)(=O)c1ccc(C(=O)O)cc1		logD (pH 1.0): 0.5
COP(=O)(NC(C)(C)C)Oc1cc(Cl)c(Cl)cc1Cl (stereo not given)	3.83	
O=S(=O)(Cc1ccccc1)c1ccccc1	2.05	
N#Cc1cccc(N)c1	1.07	
CC1=Nc2ccc(C)cc2S(=O)(=O)N1	0.81	
CCC1(C)CCC(=O)NC1=O (stereo not given)	0.23	
OCC(Br)(Br)Br	2.1	
NN(c1ccccc1)c1ccccc1		logD (pH 13.0): 2.8

Structure (SMILES)	logP	further results
NC(=O)[C@H](Cc1ccccc1)NC(=O)[C@@H](N)Cc1ccccc1 (H-Phe-Phe-NH2)	1.13	
CN(C)C(=S)NCc1ccccc1	1.59	
COc1cc(OC)c(OC)c2c1CC[C@H](NC(C)=O)c1cc(=O)c(NCc3ccccc3)ccc1-2	3.58	
CN(c1ccccc1)S(C)(=O)=O	1.02	
CC(C)c1ccccc1SCc1c(O)c(C(=O)O)cc2ccccc12	5.06	
COC(=O)c1cc2nc(S(=O)Cc3ncccc3C)[nH]c2cc1C (stereo not given)		logD (pH 5.4): 2.4
CC(=O)C(=Cc1ccccc1Cl)C(C)=O	2.19	
Cc1cc(C)cc(OC(=O)CNC(=O)c2ccccc2)c1	3.4	
COc1cccc(C(N)=O)c1	0.85	
CNc1nccn2cc(-c3ccc(S(C)=O)cc3OC)nc12 (stereo not given)	1.88	
OCC(F)(F)F	0.32	
NC(=O)c1cccc(N)c1	-0.33	
c1nnn[nH]1	-0.6	
CS(=O)(=O)N(c1ccccc1)S(C)(=O)=O	0.62	
c1cscn1	0.44	
CP(C)c1ccccc1	2.57	
CCN(CC)c1ccc(NC(=O)N(C)OC)cc1	2.33	
c1cn[nH]c1	0.13	
CCCC1CNC(C(=O)NC(C(C)Br)C2OC(SC)C(O)C(O)C2O)C1 (stereo not given)		logD (pH 12.3): 1.77
O=C(Nc1ccc(Cl)c(Cl)c1)c1ccccc1	4.42	
CCCC1=Nc2cc(Cl)ccc2S(=O)(=O)N1	2.04	
CCCCC1OC(=O)c2cc([N+](=O)[O-])ccc21 (stereo not given)	2.92	
Oc1ccccc1/C=N/c1ccccc1	3.09	
O=C(CNC(=O)c1ccccc1)Oc1cccc([N+](=O)[O-])c1	2.46	
CC(C)COCC1CNc2nc(N)[nH]c(=O)c2N1 (stereo not given)		logD (pH 7.4): 0.45
CC(=NNC(=S)N(C)C)c1cc(C)ccc1O	2.26	
